Measured values reported in patent US20120046321A1, “METHODS OF TREATING ATRIAL FIBRILLATION WITH P38 INHIBITOR COMPOUNDS” (INTERMUNE, INC., priority 2005, published 2012).
“Also recorded” adds a separate entry of the source. Where two headings read alike, the source gives them in different places.

Columns and labels:
[1] = tested on: canines with ventricular tachypacing (VTP)-induced congestive heart failure (CHF); test: Echocardiographic monitoring of the VTP-induced CHF model (LV function, LA area, CHF signs); assay type: in vivo, canine; conditions: oral PFD 800 mg three times a day
From the text: Briefly, 15 adult mongrel canines (weight 20 to 32 kgs) were divided into 3 groups (n=5 in each group) as follows: Group 1: Normal; Group 2: CHF canines not treated with PFD (or CHF); and Group 3: CHF canines treated with PFD (or CHF+PFD). […] The CHF and CHF+PFD canines underwent placement of a permanent single-chamber pacemaker with the pacing lead positioned in the right ventricular apex followed by radiofrequency catheter ablation of the AV junction to create complete heart block. Canines in the CHF and CHF+PFD groups underwent 3 weeks of VTP at a rate of 220 bpm. Oral PFD (800 mg three times a day) (InterMune, Brisbane, Calif.) was started 2 days prior to the initiation of VTP and was given for the full duration of the pacing period. The CHF and CHF+PFD groups underwent transesophageal echocardiography at the time of pacemaker implantation and at follow-up. Canines in the paced groups underwent weekly transthoracic echocardiography, weekly ECG monitoring to ensure right ventricular capture, and weekly physical examinations. CHF was established by clinical signs, such as, lethargy, peripheral edema, and mucous membrane color changes. Left atrial (LA) size was determined by measuring the LA area by planimetry from 2-D echocardiographic images during diastole from the 2-chamber views. Left ventricular (LV) systolic function was determined by measuring LV fractional shortening at the level of the papillary muscle. Two repeated measurements were made for LA area and LV fractional shortening and the mean value was used for analyses.

[2] = tested on: canines with ventricular tachypacing (VTP)-induced congestive heart failure (CHF); test: Histologic study of atrial fibrosis (Sirius red); assay type: in vivo, canine
From the text: Briefly, 15 adult mongrel canines (weight 20 to 32 kgs) were divided into 3 groups (n=5 in each group) as follows: Group 1: Normal; Group 2: CHF canines not treated with PFD (or CHF); and Group 3: CHF canines treated with PFD (or CHF+PFD). […] The CHF and CHF+PFD canines underwent placement of a permanent single-chamber pacemaker with the pacing lead positioned in the right ventricular apex followed by radiofrequency catheter ablation of the AV junction to create complete heart block. Canines in the CHF and CHF+PFD groups underwent 3 weeks of VTP at a rate of 220 bpm. Oral PFD (800 mg three times a day) (InterMune, Brisbane, Calif.) was started 2 days prior to the initiation of VTP and was given for the full duration of the pacing period. At the conclusion of the EP study, the animals were euthanized. Atrial tissue samples were fixed in 10% neutral buffered formalin. The samples were processed, embedded in paraffin, and sectioned into 4- to 5-μm-thick sections. The sections were stained in either H&E, Masson's trichrome, or Sirius red. […] To quantify fibrosis, the red pixel content of digitized images (Sirius red-stained) was measured relative to the total tissue area (red and green pixels) with the Adobe Photoshop 7.0 software package. Areas containing blood vessels and perivascular interstitial cells were excluded from fibrosis quantification. […]

TGF-β1 [3] = test: Western blot of atrial tissue; assay type: in vivo, canine; conditions: CHF+PFD vs CHF
[4] = tested on: total c-Jun N-terminal kinase (JNK); test: Western blot of atrial tissue; assay type: in vivo, canine; conditions: CHF+PFD vs CHF
Description: (§1) Expression of MAPks in atrial tissue was evaluated using Western Blot analysis. Briefly, atrial tissue specimen containing an equal amount of total protein (10 μg) was electrophoresed on a 4-20% Tris-glycine gel and then transferred onto a nitrocellulose filter. Non-specific binding sites were blocked with 4% BSA, and the filter was incubated with diluted antibody and a matched secondary antibody (all antibodies were obtained from Chemicon, Temecular, Calif.). Protein bands were analyzed with an enhanced chemiluminescence detection method using horseradish peroxidase, based on the recommendations from the manufacturer (NEN Life Science, Boston, Mass.).

[5] = tested on: total extracellular signal-regulated protein kinase (ERK); test: Western blot of atrial tissue; assay type: in vivo, canine; conditions: CHF+PFD vs CHF
Description: as §1

total p-38 = test: Western blot of atrial tissue; assay type: in vivo, canine; conditions: CHF+PFD vs CHF
Description: as §1

[6] = tested on: matrix metalloproteinase (MMP)-9; test: Western blot of atrial tissue; assay type: in vivo, canine; conditions: active form 88 kDa, CHF+PFD vs CHF
[7] = tested on: tissue inhibitor of metalloproteinase (TIMP)-4; test: Western blot of atrial tissue; assay type: in vivo, canine; conditions: 3 groups
TNF-α = test: Western blot of atrial tissue; assay type: in vivo, canine; conditions: 3 groups
IL-10 = test: Western blot of atrial tissue; assay type: in vivo, canine; conditions: 3 groups
connexin 40 (Cx40) = test: Immunofluorescent distribution of gap junction protein in LA; assay type: in vivo, canine; conditions: CHF and CHF+PFD groups
Description: (§2) The distribution of gap junction proteins connexin 43 (Cx43) and connexin 40 (Cx40) in atrial tissue was also studied. Atrial specimens were incubated with mouse monoclonal antibody against Cx40 and rabbit polyclonal antibody against Cx43 (Dako) overnight at 4° C. Subsequently, incubation with FITC-labeled goat anti-rabbit (for Cx43) and Texas Red-labeled donkey anti-mouse (for Cx40) antibodies (Jackson ImmunoResearch Laboratories, West Grove, Pa.) was performed. The specimens were processed and analyzed with fluorescent microscopy.

connexin 43 (Cx43) = test: as above; assay type: in vivo, canine; conditions: CHF and CHF+PFD groups
Description: as §2

[8] = tested on: canines with heart failure produced by 4 weeks of rapid ventricular pacing; test: AF inducibility after PFD started once 4 weeks of rapid ventricular pacing ended (Example 7); assay type: in vivo, canine; conditions: two canines, pacemakers turned off at 4 weeks, then PFD for 3 weeks
Description: AF inducibility was assessed by both the single-extrastimulus protocol (as above) and a burst pacing protocol which consisted of pacing at one LA site and one RA site. A total of 16 burst stimulations were carried out for each animal with each atrial site receiving 8 burst […] (4 for a duration of 6 seconds and 4 for 12 seconds) at a CL of 50 ms and a stimulus output of 0.5 V+twice diastolic threshold. AF was considered sustained if the induced episode lasted >[…] at which time the longest AF duration was taken as 3600 seconds and used for analysis. Two adult mongrel canines (weight 20 to 32 kgs) with heart failure produced by 4 weeks of rapid ventricular pacing as described above were evaluated for AF inducibility following PFD treatment. Briefly, pacemakers were turned off at 4 weeks and PFD started for 3 weeks. A follow-up study for AF inducibility after 3 weeks of PFD treatment was performed as described above.

TGF-β1 [9] = conditions: cited from earlier work

SMILES: Cc1ccc(=O)n(-c2ccccc2)c1 [PFD, 5-methyl-1-phenyl-2-(1H)-pyridone]
- LV fractional shortening after 3 weeks of VTP compared with baseline ([1]; CHF+PFD group, p<0.001 vs baseline): −69±8%
- CHF signs, CHF vs CHF+PFD ([1]; 3 weeks VTP): did not appear to be different
- Increase in LA area from baseline at each weekly time point, CHF vs CHF+PFD ([1]; 3 weeks VTP): similar
- Inter-group baseline and weekly LV fractional shortening, CHF vs CHF+PFD ([1]; 3 weeks VTP): similar
- LA interstitial fibrosis, histologic finding ([2]; Sirius red stained LA sections): significant attenuation
- Percentage LA fibrosis ([2]; Sirius red, p<0.002 vs. CHF group (15.4±2.3%), Normals 3.2±1.0%): 8.3±3.0%
- Expression of TGF-β1 (TGF-β1 [3]): downregulation; also recorded: reduced
- Expression of total JNK (c-Jun) [4]: downregulation; also recorded: reduced
- Expression of total ERK [5]: downregulation; also recorded: reduced
- Expression of total p-38 (total p-38): downregulation; also recorded: reduced
- Expression of MMP-9 [6]: downregulation; also recorded: reduced
- Expression of TIMP-4 [7]: unchanged; also recorded: not markedly changed
- Expression of TNF-α (TNF-α): unchanged; also recorded: not markedly different
- Expression of IL-10 (IL-10): unchanged; also recorded: not markedly different
- Spatial distribution of Cx40 in LA, treated vs untreated (connexin 40 (Cx40)): did not appear markedly different
- Spatial distribution of Cx43 in LA, treated vs untreated (connexin 43 (Cx43)): did not appear markedly different
- AF inducibility after 3 weeks of PFD treatment [8]: AF was not found
- Expression of TGF-β1 (TGF-β1 [9]; animal models of lung fibrosis (Iyer et al.)): significantly reduce
- Expression of TGF-β1 (TGF-β1 [9]; hepatic fibrosis (Garcia et al.)): significantly reduce
- Expression of TGF-β1 (TGF-β1 [9]; renal tubulointerstitial fibrosis (Shihab et al.)): significantly reduce
